Measured values taken from PubChem BioAssay AID2060886 (Molecular Pharmacology Branch, DTP, NCI, 2025).

System: 653999-131-R-J2-PDC complex spheroids, growth inhibition
Assay: Anticancer human tumor 653999-131-R-J2-PDC patient-derived lung adenocarcinoma cell line growth inhibition [RAS]
Conditions: for IC50: curve of first compound; for viability, T/C: stronger effect = lower value
In short: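 Tumour cells grown as complex spheroids with HUVEC endothelial cells and mesenchymal stem cells, treated with RAS pathway inhibitor combinations. Each agent spans half-log steps from near clinical Cmax, or 10 microM where Cmax is unknown.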

[1] = second compound 0.00316 µM, first compound 0.0316 µM
[2] = second compound 0.00316 µM, first compound 0.1 µM
[3] = second compound 0.00316 µM, first compound 0.316 µM
[4] = second compound 0.00316 µM, first compound 1 µM
[5] = second compound 0.00316 µM, first compound 3.16 µM
[6] = second compound 0.00316 µM, first compound 10 µM
[7] = second compound 0.01 µM, first compound 0.0316 µM
[8] = second compound 0.01 µM, first compound 0.1 µM
[9] = second compound 0.01 µM, first compound 0.316 µM
[10] = second compound 0.01 µM, first compound 1 µM
[11] = second compound 0.01 µM, first compound 3.16 µM
[12] = second compound 0.01 µM, first compound 10 µM
[13] = second compound 0.0316 µM, first compound 0.0316 µM
[14] = second compound 0.0316 µM, first compound 0.1 µM
[15] = second compound 0.0316 µM, first compound 0.316 µM
[16] = second compound 0.0316 µM, first compound 1 µM
[17] = second compound 0.0316 µM, first compound 3.16 µM
[18] = second compound 0.0316 µM, first compound 10 µM
[19] = second compound 0.1 µM, first compound 0.0316 µM
[20] = second compound 0.1 µM, first compound 0.1 µM
[21] = second compound 0.1 µM, first compound 0.316 µM
[22] = second compound 0.1 µM, first compound 1 µM
[23] = second compound 0.1 µM, first compound 3.16 µM
[24] = second compound 0.1 µM, first compound 10 µM
[25] = second compound 0.316 µM, first compound 0.0316 µM
[26] = second compound 0.316 µM, first compound 0.1 µM
[27] = second compound 0.316 µM, first compound 0.316 µM
[28] = second compound 0.316 µM, first compound 1 µM
[29] = second compound 0.316 µM, first compound 3.16 µM
[30] = second compound 0.316 µM, first compound 10 µM
[31] = second compound 1 µM, first compound 0.0316 µM
[32] = second compound 1 µM, first compound 0.1 µM
[33] = second compound 1 µM, first compound 0.316 µM
[34] = second compound 1 µM, first compound 1 µM
[35] = second compound 1 µM, first compound 3.16 µM
[36] = second compound 1 µM, first compound 10 µM
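Note: spheroids exposed to the agents for seven days before the readout.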

Compound `CC(=O)OC12COC1CC(O)C1(C)C(=O)C(O)C3=C(C)C(OC(=O)C(O)C(NC(=O)OC(C)(C)C)c4ccccc4)CC(O)(C(OC(=O)c4ccccc4)C21)C3(C)C` (stereo unspecified) + C=CC(=O)N1CCN(c2nc(OCC3CCCN3C)nc3c(F)c(-c4nc(N)cc(C)c4C(F)(F)F)c(Cl)cc23)C(C)C1 has an IC50 (second compound 0.00316 µM) greater than 10 µM, an IC50 (second compound 0.01 µM) greater than 10 µM and an IC50 (second compound 0.0316 µM) greater than 10 µM. It also gave an IC50 (second compound 0.1 µM) greater than 10 µM, an IC50 (second compound 0.316 µM) greater than 10 µM and an IC50 (second compound 1 µM) greater than 10 µM. It also gave a viability, T/C [1] of 56.6%, a viability, T/C [2] of 48.1% and a viability, T/C [3] of 56%. For the same compound, the viability, T/C [4] was 58.8%, the viability, T/C [5] was 61.7% and the viability, T/C [6] was 68%. The viability, T/C [7] was 63.7%, the viability, T/C [8] was 54.2% and the viability, T/C [9] was 57.9%. For the same compound, the viability, T/C [10] was 67.5%, the viability, T/C [11] was 62.6% and the viability, T/C [12] was 76%. For the same compound, the viability, T/C [13] was 58.4%, the viability, T/C [14] was 59.2% and the viability, T/C [15] was 49.2%. The viability, T/C [16] was 58.7%, the viability, T/C [17] was 73.4% and the viability, T/C [18] was 66.5%. It also gave a viability, T/C [19] of 59.5%, a viability, T/C [20] of 57.2% and a viability, T/C [21] of 53.7%. The viability, T/C [22] was 56.2%, the viability, T/C [23] was 72.5% and the viability, T/C [24] was 93.3%. The viability, T/C [25] was 55.7%, the viability, T/C [26] was 61.3% and the viability, T/C [27] was 54.5%. The viability, T/C [28] was 63.5%, the viability, T/C [29] was 79.8% and the viability, T/C [30] was 84.1%. The viability, T/C [31] was 53%, the viability, T/C [32] was 57.5% and the viability, T/C [33] was 62.3%. For the same compound, the viability, T/C [34] was 60.3%, the viability, T/C [35] was 62.9% and the viability, T/C [36] was 82.4%.
`O=C(c1ccc(F)c(F)c1Nc1ccc(I)cc1F)N1CC(O)([C@@H]2CCCCN2)C1` + CCn1c(-c2cccnc2C(C)OC)c2c3cc(ccc31)N1CCOC(CC(NC(=O)C(C(C)C)N(C)C(=O)C3(F)CCN(C(=O)C#CC(C)(C)N(C)C)CC3)C(=O)N3CCCC(N3)C(=O)OCC(C)(C)C2)C1 showed an IC50 (second compound 0.000949 µM) of 0.11 µM, an IC50 (second compound 0.003 µM) of 0.122 µM and an IC50 (second compound 0.00949 µM) of 0.0766 µM. The IC50 (second compound 0.03 µM) was 0.0814 µM, the IC50 (second compound 0.0949 µM) was 0.12 µM and the IC50 (second compound 0.3 µM) was 0.082 µM. It also gave a viability, T/C (second compound 0.000949 µM, first compound 0.00316 µM) of 83.6%, a viability, T/C (second compound 0.000949 µM, first compound 0.01 µM) of 74.5% and a viability, T/C (second compound 0.000949 µM, first compound 0.0316 µM) of 68.5%. For the same compound, the viability, T/C (second compound 0.000949 µM, first compound 0.1 µM) was 55.8%, the viability, T/C (second compound 0.000949 µM, first compound 0.316 µM) was 20.6% and the viability, T/C (second compound 0.000949 µM, first compound 1 µM) was 12%. The viability, T/C (second compound 0.003 µM, first compound 0.00316 µM) was 82.5%, the viability, T/C (second compound 0.003 µM, first compound 0.01 µM) was 60% and the viability, T/C (second compound 0.003 µM, first compound 0.0316 µM) was 71.3%. The viability, T/C (second compound 0.003 µM, first compound 0.1 µM) was 50.8%, the viability, T/C (second compound 0.003 µM, first compound 0.316 µM) was 38.4% and the viability, T/C (second compound 0.003 µM, first compound 1 µM) was 15.4%. The viability, T/C (second compound 0.00949 µM, first compound 0.00316 µM) was 92.9%, the viability, T/C (second compound 0.00949 µM, first compound 0.01 µM) was 65.2% and the viability, T/C (second compound 0.00949 µM, first compound 0.0316 µM) was 63.7%. The viability, T/C (second compound 0.00949 µM, first compound 0.1 µM) was 52.3%, the viability, T/C (second compound 0.00949 µM, first compound 0.316 µM) was 30.1% and the viability, T/C (second compound 0.00949 µM, first compound 1 µM) was 13.2%. It also gave a viability, T/C (second compound 0.03 µM, first compound 0.00316 µM) of 77.4%, a viability, T/C (second compound 0.03 µM, first compound 0.01 µM) of 57.8% and a viability, T/C (second compound 0.03 µM, first compound 0.0316 µM) of 64.5%. It also gave a viability, T/C (second compound 0.03 µM, first compound 0.1 µM) of 49.6%, a viability, T/C (second compound 0.03 µM, first compound 0.316 µM) of 26.2% and a viability, T/C (second compound 0.03 µM, first compound 1 µM) of 14.2%. For the same compound, the viability, T/C (second compound 0.0949 µM, first compound 0.00316 µM) was 62%, the viability, T/C (second compound 0.0949 µM, first compound 0.01 µM) was 68.1% and the viability, T/C (second compound 0.0949 µM, first compound 0.0316 µM) was 66.5%. For the same compound, the viability, T/C (second compound 0.0949 µM, first compound 0.1 µM) was 51.7%, the viability, T/C (second compound 0.0949 µM, first compound 0.316 µM) was 31.4% and the viability, T/C (second compound 0.0949 µM, first compound 1 µM) was 13.5%. The viability, T/C (second compound 0.3 µM, first compound 0.00316 µM) was 65.3%, the viability, T/C (second compound 0.3 µM, first compound 0.01 µM) was 70.2% and the viability, T/C (second compound 0.3 µM, first compound 0.0316 µM) was 73.1%. It also gave a viability, T/C (second compound 0.3 µM, first compound 0.1 µM) of 43.4%, a viability, T/C (second compound 0.3 µM, first compound 0.316 µM) of 23.5% and a viability, T/C (second compound 0.3 µM, first compound 1 µM) of 10.4%.
`CCC(CC)c1cc(NC2CCC(N)C2)n2nccc2n1` (stereo unspecified) + C=CC(=O)N1CCN(c2nc(OCC3CCCN3C)nc3c(F)c(-c4nc(N)cc(C)c4C(F)(F)F)c(Cl)cc23)C(C)C1 gave an IC50 (second compound 0.00316 µM) of 2.05 µM, an IC50 (second compound 0.01 µM) of 1.97 µM and an IC50 (second compound 0.0316 µM) of 2.03 µM. It also gave an IC50 (second compound 0.1 µM) of 2.12 µM, an IC50 (second compound 0.316 µM) of 1.91 µM and an IC50 (second compound 1 µM) of 2.1 µM. The viability, T/C [1] was 107%, the viability, T/C [2] was 109% and the viability, T/C [3] was 95.5%. The viability, T/C [4] was 101%, the viability, T/C [5] was 16.5% and the viability, T/C [6] was 21.7%. It also gave a viability, T/C [7] of 91.2%, a viability, T/C [8] of 92.2% and a viability, T/C [9] of 104%. The viability, T/C [10] was 99%, the viability, T/C [11] was 16.9% and the viability, T/C [12] was 18.1%. For the same compound, the viability, T/C [13] was 93.3%, the viability, T/C [14] was 117% and the viability, T/C [15] was 87.4%. For the same compound, the viability, T/C [16] was 94.3%, the viability, T/C [17] was 18.2% and the viability, T/C [18] was 26%. For the same compound, the viability, T/C [19] was 99.9%, the viability, T/C [20] was 95.4% and the viability, T/C [21] was 112%. For the same compound, the viability, T/C [22] was 113%, the viability, T/C [23] was 16.1% and the viability, T/C [24] was 25.5%. For the same compound, the viability, T/C [25] was 123%, the viability, T/C [26] was 100% and the viability, T/C [27] was 93.7%. The viability, T/C [28] was 89.4%, the viability, T/C [29] was 14.8% and the viability, T/C [30] was 23.8%. It also gave a viability, T/C [31] of 114%, a viability, T/C [32] of 97.2% and a viability, T/C [33] of 111%. It also gave a viability, T/C [34] of 116%, a viability, T/C [35] of 13.8% and a viability, T/C [36] of 20.9%.
